Experimental data published in US20210238173A1, “MITOGEN-ACTIVATED PROTEIN KINASE KINASE 7 INHIBITORS” (Yeda Research and Development Co. Ltd., priority 2018, published 2021).

Key:
AKT1 (PKB alpha) = AKT1 (PKB alpha) (Homo sapiens, UniProt P31749); experiment: Kinome selectivity screen AKT1; format: biochemical; conditions: 1 μM compound
Description: (§1) Kinome Selectivity Screen:
(§2) Kinase selectivity was assessed using the Life Technologies SelectScreen Kinase Profiling Service in a custom panel of 76 kinases selected to provide broad representative coverage of all kinase families. Kinase activity assays employed either the Z′-LYTE or Adapta assay technologies with ATP concentrations at or near the KM, ATP for each kinase and a test compound concentration of 1 μM.

pP38 in HEK293 cells = experiment: pP38 response in HEK293 cells; format: cell-based; conditions: at 10 μM
Description: (§3) To rapidly assess the cellular activity (EC50) with full dose response curves of the MKK7 covalent inhibitors, according to some embodiments of the present invention, an in-cell western assay was adapted to a 384 well plate format over traditional western blot, and monitored phospho-JNK (pJNK) levels in response to osmotic shock. We first characterized the dynamics of pJNK in response to sorbitol. Sufficient dynamic range for pJNK is achieved at 20 minutes in HEK293 cells and at 40 minutes in 3T3 and Beas2B cells. The compound's activity was assessed by pre-treating cells with either compound or DMSO for 2 hours, followed by Sorbitol stimulation. The response of pJNK, and its substrates, pc-Jun and pATF2, was measured, as well as pP38, which is a substrate of MKK4 but not MKK7, and pERK in HEK293 cells, and the results are presented in Table 5 below.
(§4) With similar values for pcJun (2.26 μM and 1.67 μM, respectively) and pATF2 (2.79 μM 5.19 μM, respectively).

pERK in HEK293 cells = experiment: pERK response in HEK293 cells; format: cell-based; conditions: at 10 μM
Description: as §3, §4

MAPK8 (JNK1) = MAPK8 (JNK1) (Homo sapiens, UniProt P45983); experiment: Kinome selectivity screen MAPK8; format: biochemical; conditions: 1 μM compound
Description: as §1, §2

MAP4K4 (HGK) = MAP4K4 (HGK) (Homo sapiens, UniProt O95819); experiment: Kinome selectivity screen MAP4K4; format: biochemical; conditions: 1 μM compound
Description: as §1, §2

TAOK2 (TAO1) = TAOK2 (TAO1) (Homo sapiens, UniProt Q9UL54); experiment: Kinome selectivity screen TAOK2; format: biochemical; conditions: 1 μM compound
Description: as §1, §2

FLT3 = FLT3 (Homo sapiens, UniProt P36888); experiment: Kinome selectivity screen FLT3; format: biochemical; conditions: 1 μM compound
Description: as §1, §2

ROCK2 = ROCK2 (Homo sapiens, UniProt O75116); experiment: Kinome selectivity screen ROCK2; format: biochemical; conditions: 1 μM compound
Description: as §1, §2

KIT = KIT (Homo sapiens, UniProt P10721); experiment: Kinome selectivity screen KIT; format: biochemical; conditions: 1 μM compound
Description: as §1, §2

AMPK A1/B1/G1 = AMPK A1/B1/G1 (Homo sapiens, UniProt Q13131); experiment: Kinome selectivity screen AMPK; format: biochemical; conditions: 1 μM compound
Description: as §1, §2

p-cJun in HEK293 cells = experiment: p-cJun inhibition in HEK293 cells; format: cell-based; conditions: Homo sapiens
Description: HEK293, Beas2B and 3T3 cells were plated 24 hours before procedure on 384 well clear bottom black flat plates (Corning) pre-coated with Fibronectin (Sigma) diluted in PBS to a concentration of 5 μg/ml 45 minutes prior to cells introduction. Cells were plated using Multidrop™ Combi reagent dispenser (Thermo Fisher Scientific). Compound, reagents and antibody dispensing as well as washes were performed with a CyBio liquid handler (Analytik). Cells were pre-incubated with a small molecule or up to 1% DMSO for 2 h before fixation. HEK293, 3T3 or Beas2B cells were treated with 0.6M/0.2M/0.2M D-Sorbitol/PBS (Sigma) for 20/40/40 min. respectively, before fixation. Media was removed and wells were immediately fixed with 150 μl per well of 3.7% formaldehyde/PBS fixing solution for 20 min. Formaldehyde was then aspired and cells were permeabilized with 150 μl of 0.5% Triton x-100/PBS solution for 10 min. After aspiration cells were washed with ice-cold methanol and stored at −20° C., for 10 min. Methanol was aspired and cells were blocked with 150 μl blocking buffer (LICOR) for 90 min. Primary antibody Phospho-SAPK/JNK T183/Y185 (CST; 9251S) was diluted 1:1000 in blocking buffer and was applied 50 μl per well, except control wells to which only blocking buffer was applied, O.N. (16 h) at 4° C. with mild shaking. […] Wells signals were analyzed with Odyssey software. […]
as §3, with “We first characterized the dynamics of pJNK in response to sorbitol. Sufficient dynamic range for pJNK is achieved at 20 minutes in HEK293 cells and at 40 minutes in 3T3 and Beas2B cells.” left out

PIM2 = PIM2 (Homo sapiens, UniProt Q9P1W9); experiment: Kinome selectivity screen PIM2; format: biochemical; conditions: 1 μM compound
Description: as §1, §2

PLK1 = PLK1 (Homo sapiens, UniProt P53350); experiment: Kinome selectivity screen PLK1; format: biochemical; conditions: 1 μM compound
Description: as §1, §2

EPHA2 = EPHA2 (Homo sapiens, UniProt P29317); experiment: Kinome selectivity screen EPHA2; format: biochemical; conditions: 1 μM compound
Description: as §1, §2

CSNK2A1 (CK2 alpha 1) = CSNK2A1 (CK2 alpha 1) (Homo sapiens, UniProt P68400); experiment: Kinome selectivity screen CSNK2A1; format: biochemical; conditions: 1 μM compound
Description: as §1, §2

RPS6KA3 (RSK2) = RPS6KA3 (RSK2) (Homo sapiens, UniProt P51812); experiment: Kinome selectivity screen RPS6KA3; format: biochemical; conditions: 1 μM compound
Description: as §1, §2

NTRK1 (TRKA) = NTRK1 (TRKA) (Homo sapiens, UniProt P04629); experiment: Kinome selectivity screen NTRK1; format: biochemical; conditions: 1 μM compound
Description: as §1, §2

MAPK1 (ERK2) = MAPK1 (ERK2) (Homo sapiens, UniProt P28482); experiment: Kinome selectivity screen MAPK1; format: biochemical; conditions: 1 μM compound
Description: as §1, §2

DYRK3 = DYRK3 (Homo sapiens, UniProt O43781); experiment: Kinome selectivity screen DYRK3; format: biochemical; conditions: 1 μM compound
Description: as §1, §2

CDK1/cyclin B = CDK1/cyclin B (Homo sapiens, UniProt P06493); experiment: Kinome selectivity screen CDK1/cyclin B; format: biochemical; conditions: 1 μM compound
Description: as §1, §2

PRKACA (PKA) = PRKACA (PKA) (Homo sapiens, UniProt P17612); experiment: Kinome selectivity screen PRKACA; format: biochemical; conditions: 1 μM compound
Description: as §1, §2

PLK1, sequence (P53350 whole entry): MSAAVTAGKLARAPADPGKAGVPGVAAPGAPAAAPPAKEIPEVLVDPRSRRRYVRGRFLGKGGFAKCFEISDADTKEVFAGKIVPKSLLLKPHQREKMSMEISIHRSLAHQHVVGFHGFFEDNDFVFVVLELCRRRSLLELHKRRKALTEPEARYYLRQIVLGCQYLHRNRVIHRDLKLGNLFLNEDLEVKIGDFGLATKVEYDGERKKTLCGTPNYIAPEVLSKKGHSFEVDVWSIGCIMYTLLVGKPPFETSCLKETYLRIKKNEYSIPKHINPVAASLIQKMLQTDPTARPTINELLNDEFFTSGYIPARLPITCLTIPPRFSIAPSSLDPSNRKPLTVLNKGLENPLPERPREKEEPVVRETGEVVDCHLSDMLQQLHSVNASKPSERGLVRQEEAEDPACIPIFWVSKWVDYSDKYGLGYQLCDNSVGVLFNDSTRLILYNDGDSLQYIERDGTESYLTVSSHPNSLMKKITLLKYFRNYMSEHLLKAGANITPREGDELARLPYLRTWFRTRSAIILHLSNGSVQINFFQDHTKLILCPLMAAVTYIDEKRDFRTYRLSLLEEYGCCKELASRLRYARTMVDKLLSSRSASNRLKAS
PIM2, sequence (Q9P1W9 whole entry): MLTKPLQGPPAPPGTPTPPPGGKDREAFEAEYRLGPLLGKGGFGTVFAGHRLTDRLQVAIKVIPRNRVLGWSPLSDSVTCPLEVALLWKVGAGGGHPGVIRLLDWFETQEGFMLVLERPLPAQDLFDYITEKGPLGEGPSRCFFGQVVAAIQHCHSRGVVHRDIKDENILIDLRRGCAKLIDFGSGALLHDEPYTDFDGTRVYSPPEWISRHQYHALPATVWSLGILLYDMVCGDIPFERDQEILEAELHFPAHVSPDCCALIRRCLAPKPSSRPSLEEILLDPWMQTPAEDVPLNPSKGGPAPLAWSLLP
MAPK8 (JNK1), sequence (P45983 whole entry): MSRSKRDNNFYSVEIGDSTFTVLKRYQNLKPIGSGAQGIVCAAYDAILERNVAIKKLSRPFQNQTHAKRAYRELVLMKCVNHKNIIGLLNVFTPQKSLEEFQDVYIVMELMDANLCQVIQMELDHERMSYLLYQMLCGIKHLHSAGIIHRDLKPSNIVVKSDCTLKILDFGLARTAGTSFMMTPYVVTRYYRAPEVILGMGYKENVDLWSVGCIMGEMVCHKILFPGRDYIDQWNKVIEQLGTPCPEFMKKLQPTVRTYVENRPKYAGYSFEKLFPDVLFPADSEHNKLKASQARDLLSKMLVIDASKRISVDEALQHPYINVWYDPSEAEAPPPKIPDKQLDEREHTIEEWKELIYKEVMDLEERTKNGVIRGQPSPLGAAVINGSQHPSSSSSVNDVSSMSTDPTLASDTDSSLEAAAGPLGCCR
MAP4K4 (HGK), sequence (O95819 whole entry): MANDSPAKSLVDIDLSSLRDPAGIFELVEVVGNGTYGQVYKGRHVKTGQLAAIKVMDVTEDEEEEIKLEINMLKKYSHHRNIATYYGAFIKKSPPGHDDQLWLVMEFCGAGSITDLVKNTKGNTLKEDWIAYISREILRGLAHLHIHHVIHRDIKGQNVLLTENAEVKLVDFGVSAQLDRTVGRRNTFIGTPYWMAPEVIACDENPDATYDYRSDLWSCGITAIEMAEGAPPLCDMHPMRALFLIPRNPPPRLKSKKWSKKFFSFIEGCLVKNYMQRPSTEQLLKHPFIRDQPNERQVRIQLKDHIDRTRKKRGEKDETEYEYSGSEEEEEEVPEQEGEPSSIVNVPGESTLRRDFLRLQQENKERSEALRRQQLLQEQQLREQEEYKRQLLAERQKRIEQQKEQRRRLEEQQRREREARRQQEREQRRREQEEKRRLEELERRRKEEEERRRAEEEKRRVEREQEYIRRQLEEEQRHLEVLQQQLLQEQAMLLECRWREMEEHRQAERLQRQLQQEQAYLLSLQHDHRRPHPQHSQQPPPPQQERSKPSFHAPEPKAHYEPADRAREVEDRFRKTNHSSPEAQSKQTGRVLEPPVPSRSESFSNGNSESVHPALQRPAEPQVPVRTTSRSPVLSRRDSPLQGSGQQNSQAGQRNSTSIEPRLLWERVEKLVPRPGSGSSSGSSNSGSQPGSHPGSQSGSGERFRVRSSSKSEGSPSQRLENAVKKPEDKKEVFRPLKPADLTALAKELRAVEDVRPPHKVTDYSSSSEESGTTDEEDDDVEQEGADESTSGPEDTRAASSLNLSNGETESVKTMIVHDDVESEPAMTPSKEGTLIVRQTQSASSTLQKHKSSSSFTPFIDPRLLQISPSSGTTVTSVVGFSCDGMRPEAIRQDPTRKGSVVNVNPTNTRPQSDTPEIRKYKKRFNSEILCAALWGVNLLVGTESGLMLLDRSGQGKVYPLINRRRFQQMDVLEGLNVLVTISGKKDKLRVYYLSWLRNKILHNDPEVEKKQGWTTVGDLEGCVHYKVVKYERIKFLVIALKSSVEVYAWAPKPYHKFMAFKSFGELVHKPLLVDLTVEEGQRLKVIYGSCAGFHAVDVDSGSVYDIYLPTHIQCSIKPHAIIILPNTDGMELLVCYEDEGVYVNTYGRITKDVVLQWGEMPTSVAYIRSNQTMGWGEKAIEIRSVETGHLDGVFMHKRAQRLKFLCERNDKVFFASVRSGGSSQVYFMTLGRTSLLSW
CDK1/cyclin B, sequence (P06493 whole entry): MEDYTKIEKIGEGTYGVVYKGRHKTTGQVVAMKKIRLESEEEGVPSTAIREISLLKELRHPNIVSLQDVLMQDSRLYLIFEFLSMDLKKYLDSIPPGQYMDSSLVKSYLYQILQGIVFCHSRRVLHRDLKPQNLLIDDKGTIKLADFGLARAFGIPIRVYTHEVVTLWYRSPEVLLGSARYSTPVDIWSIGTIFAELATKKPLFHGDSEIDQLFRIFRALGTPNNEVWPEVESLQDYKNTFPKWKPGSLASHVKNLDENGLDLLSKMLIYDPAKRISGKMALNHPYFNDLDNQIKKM
CDK1/cyclin B, sequence (P14635 whole entry partner): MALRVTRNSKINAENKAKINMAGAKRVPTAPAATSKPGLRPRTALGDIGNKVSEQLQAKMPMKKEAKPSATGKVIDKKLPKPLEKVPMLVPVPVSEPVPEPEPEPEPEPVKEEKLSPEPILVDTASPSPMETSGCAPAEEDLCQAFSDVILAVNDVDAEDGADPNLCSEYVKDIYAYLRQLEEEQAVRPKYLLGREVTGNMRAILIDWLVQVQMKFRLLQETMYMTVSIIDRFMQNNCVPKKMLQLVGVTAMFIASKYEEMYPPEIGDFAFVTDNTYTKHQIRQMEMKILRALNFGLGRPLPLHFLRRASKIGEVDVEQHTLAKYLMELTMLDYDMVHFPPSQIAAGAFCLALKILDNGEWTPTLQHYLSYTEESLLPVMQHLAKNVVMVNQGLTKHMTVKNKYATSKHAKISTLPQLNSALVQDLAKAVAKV
CSNK2A1 (CK2 alpha 1), sequence (P68400 whole entry): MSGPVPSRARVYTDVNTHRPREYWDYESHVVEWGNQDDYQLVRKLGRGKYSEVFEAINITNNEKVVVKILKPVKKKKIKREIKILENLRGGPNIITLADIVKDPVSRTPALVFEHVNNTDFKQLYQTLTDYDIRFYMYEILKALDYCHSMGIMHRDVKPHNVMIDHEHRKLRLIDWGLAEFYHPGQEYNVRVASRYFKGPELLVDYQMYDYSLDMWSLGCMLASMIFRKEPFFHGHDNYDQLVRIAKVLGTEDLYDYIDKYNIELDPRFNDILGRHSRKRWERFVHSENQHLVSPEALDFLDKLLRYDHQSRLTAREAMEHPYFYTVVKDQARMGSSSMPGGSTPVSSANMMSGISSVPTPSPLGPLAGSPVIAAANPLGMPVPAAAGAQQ
AMPK A1/B1/G1, sequence (Q13131 whole entry): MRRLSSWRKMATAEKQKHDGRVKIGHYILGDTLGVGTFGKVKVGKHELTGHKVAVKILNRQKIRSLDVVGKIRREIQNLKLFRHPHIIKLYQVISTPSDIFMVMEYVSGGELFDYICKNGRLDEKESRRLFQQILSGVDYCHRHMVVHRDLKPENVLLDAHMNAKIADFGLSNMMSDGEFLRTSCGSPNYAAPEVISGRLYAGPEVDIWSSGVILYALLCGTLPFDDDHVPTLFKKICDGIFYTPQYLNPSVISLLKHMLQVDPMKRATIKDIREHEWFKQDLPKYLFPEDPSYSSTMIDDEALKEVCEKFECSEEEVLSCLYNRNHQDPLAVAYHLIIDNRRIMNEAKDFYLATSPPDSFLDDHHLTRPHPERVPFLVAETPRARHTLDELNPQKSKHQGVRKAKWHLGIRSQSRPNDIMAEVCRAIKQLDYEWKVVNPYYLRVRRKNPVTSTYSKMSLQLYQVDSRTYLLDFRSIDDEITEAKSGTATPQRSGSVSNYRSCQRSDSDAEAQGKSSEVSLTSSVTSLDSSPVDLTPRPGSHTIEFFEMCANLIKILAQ
AMPK A1/B1/G1, sequence (Q9Y478 whole entry partner): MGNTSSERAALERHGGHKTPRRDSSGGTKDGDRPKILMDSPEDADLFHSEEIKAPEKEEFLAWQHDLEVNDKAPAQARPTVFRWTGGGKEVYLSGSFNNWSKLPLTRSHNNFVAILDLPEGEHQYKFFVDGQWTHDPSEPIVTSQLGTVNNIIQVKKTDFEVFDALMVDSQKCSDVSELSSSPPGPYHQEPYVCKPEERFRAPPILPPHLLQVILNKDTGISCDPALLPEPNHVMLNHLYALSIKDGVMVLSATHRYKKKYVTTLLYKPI
AMPK A1/B1/G1, sequence (P54619 whole entry partner): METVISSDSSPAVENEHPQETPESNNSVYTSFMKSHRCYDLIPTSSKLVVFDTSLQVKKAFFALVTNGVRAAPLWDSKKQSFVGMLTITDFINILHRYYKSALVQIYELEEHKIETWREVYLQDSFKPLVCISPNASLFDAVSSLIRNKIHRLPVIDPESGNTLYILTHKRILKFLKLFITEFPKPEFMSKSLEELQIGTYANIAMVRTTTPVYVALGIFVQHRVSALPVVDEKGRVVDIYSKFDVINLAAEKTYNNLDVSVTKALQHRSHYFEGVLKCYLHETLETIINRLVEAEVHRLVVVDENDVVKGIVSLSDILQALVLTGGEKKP

| inhibition at 1 µM (AKT1 (PKB alpha)) [%] | inhibition at 1 µM (MAPK8 (JNK1)) [%] | inhibition at 1 µM (MAP4K4 (HGK)) [%] | inhibition at 1 µM (TAOK2 (TAO1)) [%] | inhibition at 1 µM (FLT3) [%] | inhibition at 1 µM (ROCK2) [%] | inhibition at 1 µM (KIT) [%] | inhibition at 1 µM (AMPK A1/B1/G1) [%] | inhibition at 1 µM (PIM2) [%] | inhibition at 1 µM (PLK1) [%] | inhibition at 1 µM (EPHA2) [%] | inhibition at 1 µM (CSNK2A1 (CK2 alpha 1)) [%] | inhibition at 1 µM (RPS6KA3 (RSK2)) [%] | inhibition at 1 µM (NTRK1 (TRKA)) [%] | inhibition at 1 µM (MAPK1 (ERK2)) [%] | inhibition at 1 µM (DYRK3) [%] | inhibition at 1 µM (CDK1/cyclin B) [%] | inhibition at 1 µM (PRKACA (PKA)) [%] | Structure (SMILES) | effect on pP38 levels (pP38 in HEK293 cells) | EC50 (p-cJun in HEK293 cells) [nM] | also measured |
| --- | --- | --- | --- | --- | --- | --- | --- | --- | --- | --- | --- | --- | --- | --- | --- | --- | --- | --- | --- | --- | --- |
| -5 | 15 | 58 | 12 | 55 | -2 | 17 | -5 | -2 | 1 | -16 | 0 | 2 | 22 | -3 | 11 | 19 | -8 | C=CC(=O)Nc1cccc(-c2n[nH]c3ccccc23)c1 [GO32] | no effect | 2260 | decrease in pERK (pERK in HEK293 cells): about 25% |
| -4 | 16 | 42 | 14 | 79 | -4 | 10 | -5 | 3 | 3 | -13 | -2 | -1 | 44 | 3 | 22 | 22 | -10 | C=CC(=O)Nc1cccc(-c2n[nH]c3cc(C)ccc23)c1 [GO80] | did not affect | 1670 | effect on pERK levels (pERK in HEK293 cells): did not affect |
